Reference: patent US20180072675A1, “ANTIMICROBIAL PYRIDINOHYDRAZIDE AND HYDRAZOMETHYLPYRIDINE-BASED AGENTS” (Board of Supervisors of Louisiana State University and …, priority 2015, published 2018)
≈ marks a conversion by molar mass, not a printed value.

Key:
[1] = test system: C. albicans clinical isolate 1 (TW1); test: MIC80 fungal growth inhibition, clinical isolate TW1; type: cell-based, Candida albicans; details: Azole-susceptible, >80% growth inhibition, visual scoring; for MIC80: Candida albicans, read-out: MIC80 TW1
Protocol: (§1) The antifungal activity of the pyridinohydrazide and hydrazomethylpyridine derivatives described in the s were evaluated in vitro using Candida albicans (ATCC Accession No. 10231) and Candida glabrata (ATCC Accession No. 48435). In addition, the compounds were evaluated for activity against two previously-described clinical isolates of C. albicans known to have developed azole-resistance. These isolates were obtained over a two year period from a single AIDS patient and the development of the azole-resistance mechanisms have been extensively characterized (White T C. Antimicrob. Agents Chemother. (1997) 41: 1482-1487). MIC assays were performed on the clinical isolates 1 and 17 (annotated TW1 and TW17, respectively), where isolate 1 was used as an azole-susceptible control and isolate 17 was considered azole-resistant. All assays were done in accordance with NCCLS reference documents (Clinical Laboratory and Standards Institute. Reference method for Broth Dilution Antifungal Susceptibility Testing of Yeasts: Approved Standard. M27-A3 2010; 28). The results of these screenings are summarized in Tables 1-9 (Examples 20-27) as the minimum concentrations that inhibited more than 80% of fungal growth (MIC80) as compared to positive controls containing 1% DMSO. Assays were performed in HEPES-buffered RPMI-1640 media. All MIC screens used a visual scoring method as opposed to spectroscopic analysis, due to the altered absorbance spectra of many of the compounds.

[2] = test system: C. albicans clinical isolate 17 (TW17); test: MIC80 fungal growth inhibition, clinical isolate TW17; type: cell-based, Candida albicans; details: for MIC80 TW17 / MIC80: Azole-resistant, >80% growth inhibition, visual scoring; for MIC80: Candida albicans, read-out: MIC80 TW17
Protocol: as §1

[3] = test system: Candida albicans (ATCC Accession No. 10231); test: MIC80 fungal growth inhibition, C. albicans ATCC 10231; type: cell-based; details: Azole-susceptible, >80% growth inhibition, visual scoring; for MIC80: Candida albicans, ATCC10231, read-out: MIC80 C. albicans ATCC No. 10231
Protocol: as §1

[4] = test system: Candida glabrata (ATCC Accession No. 48435); test: MIC80 fungal growth inhibition, C. glabrata ATCC 48435; type: cell-based; details: Azole-resistant, >80% growth inhibition, visual scoring; for MIC80: Nakaseomyces glabratus, ATCC48435, read-out: MIC80 C. glabrata ATCC No. 48435
Protocol: as §1

Candida strain TW17 = test: Time-kill assay; type: cell-based, Candida albicans; details: four times the MIC for TW17, 48 h
Protocol: FIG. 9 illustrates time-kill assays, for representative analogs that were active against the azole-resistant TW17, to determine the cidal or static nature of the analog tested. 100 μl of each sample was spread onto YM agar plates with a sterile bent spreading rod. Plates were incubated at 35° C. overnight and colonies were then counted on each plate.
One of the objectives of this study was to determine the cidal or static nature of the analogs that were active against such as TW17, the azole-resistant clinical isolate. Azoles affect Candida spp. by inhibiting ergosterol biosynthesis, and ultimately prevent their reproduction. This effect has led to the classification of azoles as fungistats. Determining the fungistatic or fungicidal nature of the synthesized compounds of the present disclosure allows a comparison to azoles, in addition to improving the understanding of how the structural motifs might lend toward an alternate mechanism of action. Therefore, time-kill assays were performed using the representative analogs that were active against the azole-resistant TW17 at concentrations at or below 8 μg/mL.
Solid drugs were dissolved in DMSO to a concentration of 10 mg/ml. This stock solution was then further diluted in water to the desired experimental concentration, determined to be four times that of the MIC for the Candida strain TW17 (as reported in the Tables).
Individual colonies of TW17 were suspended in 5 ml of sterile water and adjusted to achieve a McFarland reading between 0.08 and 0.12. The inoculum was then further diluted in sterile water at a ratio of 1:100. Three […] tissue culture tubes were prepared by combining 2.5 ml of above diluted inoculum, 21.7 ml of HEPES buffered RPMI-1640 media, and 800 μl of experimental drug dilution. A “Growth Control” tube was prepared by combining 2.5 ml of inoculum, 21.7 HEPES buffered RPMI-1640 media, and 800 μl of water-DMSO solution equal to the DMSO concentration of the experimental drug dilution. A “Sterile Control” tube was prepared by combining 24.2 ml of HEPES-buffered RPMI-1640 media and 800 μl of water-DMSO solution as in the “Growth Control”. All tubes were incubated for 48 hours at 35° C., 50 rpm. 500 μl samples were taken from the tubes at time points of predetermined intervals during this incubation.
Time points for the “Kill-Curve” and “Growth Control” tubes were taken at 0, 1, 2, 4, 6, 8, 24, and 48 h after the start of incubation. Time points for “Sterile Control” were taken at 0 and 48 hours. Each time point sample was serially diluted 1:10 in sterile 0.9% NaCl solution up to 5 times. 100 μl of each sample was spread onto YM agar plates with a sterile bent spreading rod. Plates were incubated at 35° C. overnight and colonies were then counted on each plate. Colonies on plates from diluted time points were used to estimate uncountable undiluted samples. The number of colonies in undiluted samples was estimated to be 10^n times greater than the diluted sample, where n was the number of dilutions made.

[5] = test system: Candida albicans ATCC Accession No. 10231; test: Checkerboard synergy assay with fluconazole; type: cell-based; details: for FIC Fluc: average FIC of fluconazole at varying concentrations of the test drug; for FIC Test: average FIC of the test drug at varying concentrations of fluconazole; for Activity (interaction with fluconazole): from FIC index; for FIC Index: sum of the two FICs, <1 synergistic, >=1 antagonistic
Protocol: Considering that two different modes of activity (cidal and static) were observed depending on the structural motifs present in our analogs, we performed a series of checkerboard assays to determine if representative active compounds were in fact acting in synergy with the azole, fluconazole. Each of these assays tested multiple concentrations of the selected analog in the presence of multiple concentrations of fluconazole. All checkerboard assays were prepared in 96-well plates. 200 μl of previously prepared drug solutions were added to each well in column 2. Using a multichannel pipette, 100 μl from each well in column 2 was serially diluted (1:2) horizontally across the plate, stopping at column 10. Contents of each well were mixed thoroughly. Column 11 was reserved for fluconazole MIC control and contained no other drug. 100 μl of media was added to each well, column 2-10. Each well was mixed thoroughly with a multichannel pipette. 100 μl was then removed and discarded from these wells. 100 μl of previously prepared fluconazole dilution was added to each well in row B. Using a multichannel pipette, 100 μl from each well was serially diluted (1:2) vertically down the plate, stopping at row F. Contents of each well were mixed thoroughly. Row G was reserved for tested drug MIC control and contained no fluconazole. Well G11 contained neither drug and served as a drug-free growth control. The final 100 μl from each well in row F was discarded.
The fungal samples were prepared from glycerol stocks of Candida albicans ATCC Accession No. 10231. The inoculum's concentration was adjusted to a McFarland standard between 0.08 and 0.12. Inoculum was then diluted at a ratio of 1:37.5 in buffered media. 100 μl of inoculum-media solution was added to each well. Following inoculation, the 96-well plates were wrapped in parafilm to prevent evaporation and incubated for overnight at 35° C. After 18 h, the wells showing growth were recorded.
Synergistic activity was determined based on the MIC read from these plates. The fractional inhibitory concentration (FIC) for a given well is the ratio of the minimum inhibitory concentration of one drug A in the presence another drug B to the minimum inhibitory concentration with only drug A. The FIC was calculated for the test drug in each of the wells along the growth/no-growth interface at varying concentrations of fluconazole, then these values were averaged to determine the average FIC for the test drug. The same process was used to calculate the average FIC for fluconazole at varying concentrations of the test drug. The sum of these two FICs gives the FIC index which can be used to determine the synergistic effect between the two drugs (Hsieh et al., Diagn. Microbiol. Infect. Dis. (1993) 16: 343-349). An FIC index value less than 1 indicated synergistic interactions between the two drugs while an FIC index value greater than or equal to 1 indicated antagonistic interactions.

protozoal proliferation = test: Protozoal proliferation; type: cell-based; details: FIG. 27
Candida spp. = test: MIC studies, statements pooled over several isolates; type: cell-based, Candida albicans, Candida glabrata; details: for antifungal activity (in words): overall over the isolates tested
Protocol: as §1

Vero (kidney) cells = test: Mammalian cell toxicity, Promega CellTiter 96, kidney cells; type: cell-based; details: through 10× MIC, 24 h
Protocol: (§2) Cytotoxicity was determined using non-cancerous Vero cells (kidney-african green monkey) and liver cells (Hep-2G) in accordance with Promega CellTiter 96 Non-Radioactive Cell Proliferation Assay (cat # G4000). Compounds were diluted in media and all assays were done in triplicate. Average values are presented, with ±SD. Cells were incubated in the presence of the compounds for 24 h at 37° C. and 5% CO2. Tetrazolium dye solution was added to each well and allowed to incubate for 1-4 h. Solubilization/Stop solution was added and allowed to sit at room temperature for 1 h. Formazan product was scored spectrophotometrically with an automatic plate reader set at 570 nm. Positive control wells for cell death were briefly treated with 0.1% saponin, immediately prior to the addition of dye solution. Wells containing 1% DMSO and no drug were used as a negative control and the average absorbance at 570 nm were set to 100%. The percent of cells viable were calculated as a ratio between the average absorption at 570 nm of the drug containing wells/average absorption at 570 nm of the control (no drug). Ratios were multiplied by 100 to give the values as a percentage as expressed on the y-axis.
(§3) Cytotoxicity studies were performed in accordance with Promega CellTiter 96 Non-RadioactivCell Proliferation Assay (cat #G4000). All cytotoxicity studies used a negative control (wells of either kidney or liver cells containing 1% DMSO but lacking the analog), a positive control (wells of either kidney or liver cells treated with the known cytotoxic agent, saponin) and the serial dilutions of the novel analogs. All control (negative) wells were normalized to 100% viable cells to accurately show the percentage of either liver or kidney cells that remained alive and viable following either overnight incubation with the analogs or 5-minute treatment with 0.1% saponin.

Hep G2 (liver) cells = test: Mammalian cell toxicity, Promega CellTiter 96, liver cells; type: cell-based; details: through 10× MIC, 24 h
Protocol: as §2, §3

Structure (SMILES)	MIC80 TW1 [1] [µg/mL]	MIC80 TW17 [2] [µg/mL]	MIC80 C. albicans ATCC No. 10231 [3] [µg/mL]	MIC80 C. glabrata ATCC No. 48435 [4] [µg/mL]	MIC80 [1] [µg/mL]	MIC80 [2] [µg/mL]	MIC80 [4] [µg/mL]	also measured
O=C(N/N=C/c1cc([N+](=O)[O-])ccc1O)c1ccc[n+]([O-])c1 [AR28]	4 (≈ 13.2 µM)	2 (≈ 6.62 µM)	8 (≈ 26.5 µM)	4 (≈ 13.2 µM)				activity against azole-resistant TW17 [2]: 2 µM; Cidal vs Static (Candida strain TW17): Static; FIC Fluc [5]: 1.00; FIC Test [5]: 1.00; Activity (interaction with fluconazole) [5]: Antagonistic; FIC Index [5]: 2.00
O=C(N/N=C/c1cc(Cl)ccc1O)c1ccccn1 [AR4, (E)-N′-(5-Chloro-2-hydroxybenzylidene)picolinohydrazide]					4 (≈ 14.5 µM)	8 (≈ 29 µM)	1 (≈ 3.63 µM)	MIC80 [3]: 1 µg/mL (≈ 3.63 µM); effect on protozoal proliferation (protozoal proliferation): reduce protozoal proliferation
O=C(N/N=C/c1cc([N+](=O)[O-])ccc1O)c1ccccn1 [AR6, (E)-N′-(2-hydroxy-5-nitrobenzylidene)picolinohydrazide]					8 (≈ 27.9 µM)	8 (≈ 27.9 µM)	8 (≈ 27.9 µM)	MIC80 [3]: 4 µg/mL (≈ 14 µM); Cidal vs Static (Candida strain TW17): Static; FIC Fluc [5]: 1.00; FIC Test [5]: 1.00; Activity (interaction with fluconazole) [5]: Antagonistic; FIC Index [5]: 2.00
Cc1ccc(O)c(/C=N/NC(=O)c2cccnc2)c1 [AR8]	16 (≈ 62.7 µM)		4 (≈ 15.7 µM)	8 (≈ 31.3 µM)				activity against azole-resistant isolates (in words) (Candida spp.; azole-resistant isolates): less active
O=C(NN=Cc1ccccn1)c1ccccn1 [AR34]	16 (≈ 70.7 µM)	16 (≈ 70.7 µM)	31 (≈ 137 µM)	16 (≈ 70.7 µM)				antifungal activity (in words) (Candida spp.): moderate activity
O=C(N/N=C/c1cc([N+](=O)[O-])ccc1O)c1ccncc1 [SA113]								effect on protozoal proliferation (protozoal proliferation): reduce protozoal proliferation
O=C(N/N=C/c1ccccc1O)c1cccnc1O [AR19]					4 (≈ 15.5 µM)	4 (≈ 15.5 µM)	1 (≈ 3.89 µM)	cell toxicity (Vero (kidney) cells): minimal toxicity; cell toxicity (Hep G2 (liver) cells): minimal toxicity; growth inhibition (in words) (Candida spp.; across all Candida albicans isolates): growth inhibition was observed at very low concentrations
C(=NNc1ccccc1)c1ccccn1 [AR29]	16 (≈ 81.1 µM)	16 (≈ 81.1 µM)	16 (≈ 81.1 µM)	31 (≈ 157 µM)				antifungal activity (in words) (Candida spp.): moderate activity
